Measurements: patent US12721828B2, “Pharmaceutical liquid composition, kit of parts comprising the pharmaceutical liquid composition, and method for preparing the pharmaceutical liquid composition” (MPERIUM B.V., priority 2019, dated 2026)
Read-outs that look alike come from different tables or passages of the source.

How the values were obtained:
[1] = 350 mg/ml, 6 hours, room temperature, Watson-Marlow 505-S pump, tube diameter 0.2 mm, rpm 50
Method: A 6 hour test has been performed wherein a SPB oplossing (350 mg/ml) was circulated at room temperature by a Watson-Marlow 505-S pump, tube diameter 0.2 mm, rpm 50. The pump settings correspond to an almost dropwise output. The speed was controlled to be low to simulate a worst case situation to signal blocking of the tube and/or crystallization of the SPB solution in the tube.

[2] = 1.88 mmol/ml (350 mg/mL SPB) in an aqueous solution
[3] = not given; remark: listed apart in the source

With Sodium Phenylbutyrate [SPB] as the substance, how does the “blockage of the tube and crystallization of the SPB solution in the tube” value [1] read?
Its value is “did not occur”.

What about the “pH of aqueous solution” value [2] of the same substance?
Its value is greater than 8.

What about the “dissolving in purified water” value (500 mg/ml) of the same substance?
Its value is “required to pre-heat (40° C.) the purified water to dissolve the SPB completely”.

And the “behaviour during the dissolving process in purified water” value (SPB concentrations higher than 350 mg/ml)?
Its value is “significant lumping”.

And the crystallization on storage ([3]; 450 mg/ml, 400 mg/ml and 350 mg/ml solutions, 2 weeks at 25° C., 40° C. and 5° C.)?
Its crystallization on storage is “Only the SPB 500 mg/ml showed crystallization”.

And the crystallization on storage ([3]; 500 mg/ml solution, clear glass bottles, 40° C.)?
Its crystallization on storage is “crystallization after 1 week”.
